We go through two compounds from BindingDB's records for doi:10.1016/j.bmc.2020.115644 (Umass Medical School, 2020).

Test [1] concerns the target T1, NAD(+) hydrolase SARM1 (Homo sapiens, UniProt Q6SZW1).
T1 sequence (Q6SZW1 whole entry): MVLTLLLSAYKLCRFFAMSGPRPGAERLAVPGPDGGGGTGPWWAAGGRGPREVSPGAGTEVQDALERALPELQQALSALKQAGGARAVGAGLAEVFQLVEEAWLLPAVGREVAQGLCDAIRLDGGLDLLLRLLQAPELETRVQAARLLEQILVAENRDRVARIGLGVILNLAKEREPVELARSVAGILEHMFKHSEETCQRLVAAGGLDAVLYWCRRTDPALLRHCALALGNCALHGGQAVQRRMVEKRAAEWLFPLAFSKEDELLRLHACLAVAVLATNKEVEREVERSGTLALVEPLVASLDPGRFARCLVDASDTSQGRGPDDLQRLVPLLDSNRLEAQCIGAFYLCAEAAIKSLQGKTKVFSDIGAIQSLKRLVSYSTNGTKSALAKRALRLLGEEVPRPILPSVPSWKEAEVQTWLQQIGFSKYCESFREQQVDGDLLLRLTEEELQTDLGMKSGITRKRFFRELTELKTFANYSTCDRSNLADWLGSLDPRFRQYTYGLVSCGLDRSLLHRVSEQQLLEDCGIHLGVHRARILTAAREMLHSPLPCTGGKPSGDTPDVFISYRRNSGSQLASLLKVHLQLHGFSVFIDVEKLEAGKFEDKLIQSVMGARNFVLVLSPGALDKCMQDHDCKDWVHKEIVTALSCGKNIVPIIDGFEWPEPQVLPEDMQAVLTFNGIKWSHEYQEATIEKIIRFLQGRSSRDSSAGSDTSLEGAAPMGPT
Kind of test: Inhibition of recombinant human SARM1 TIR domain (561 to 724 residues) expressed in Escherichia coli C43 (DE3) cells lysates using ENAD as substrate preincubated for 20 mins followed by ENAD addition and measured at 15 sec interval for 15 mins.

Test [2] concerns the target T1, NAD(+) hydrolase SARM1. Kind of test: Noncompetitive inhibition of recombinant human SARM1 TIR domain (561 to 724 residues) expressed in Escherichia coli C43 (DE3) cells lysates assessed as EADPR formation using ENAD as substrate preincubated for 20 mins followed by ENAD addition and measured at 15 sec interval for 1 hr.

Structures are written as SMILES. Structures can show the parent of a compound that is named as a salt.

For the compound `C[C@H]1c2cccc(O)c2C(=O)C2=C(O)[C@]3(O)C(=O)C(C(N)=O)=C(O)[C@@H](N(C)C)[C@@H]3[C@@H](O)[C@@H]21` [DOXYCYCLINE HYDROCHLORIDE], the IC50 on NAD(+) hydrolase SARM1 [1] stood at 145 µM. Besides, the Ki at NAD(+) hydrolase SARM1 [2] is 280 µM. Consider `Nc1ccc(/N=N/c2ccccc2)c(N)n1` [NC 150], for which the IC50 on NAD(+) hydrolase SARM1 [1] turned out to be 145 µM.
